In assay [1] the test system is caspase-3. The assay can be described thus: Caspase-3 activity for apoptosis detection (Caspase-Glo). It counts as cell-based, human. As to conditions: LNCaP cells, 24 h. As to the method:
In General, drug can cause tumor apoptosis mediated activate caspase-3 leading to release fluoresce dye to detect by machine. Caspase-3 activity was measured using testis supernatants with the Caspase-Glo Assay System (Promega, Madison, Wis.) according to the manufacturer's instructions. Briefly, 50 μl of the Caspase-Glo buffer was added to 50 μl of tissue supernatants in a 96-well plate and incubated at room temperature for 60 minutes. Luminescence was measured using a Biotek synergy microplate reader (Biotek, Winooski, Vt.). Background activity levels, based on measurements in homogenization buffer only, were measured and subtracted from values in the testis tissue supernatants. All values were normalized to total protein content. Standard curves were used to determine the linearity of the responses.
Assays were carried out to examine whether K8 (Isochaihulactone) increases LNCaP cells caspase-3 activity which leads to tumor cell apoptosis. Briefly, LNCaP cells were treated with different concentrations of Z-K8 (0.25 to 4 μM) for 24 h. […] Thus, Z-K8 can be used in the treatment of prostate cancer.

Assay [2] has as its system AR. The assay can be described thus: Immunohistochemical staining of xenograft tumors, AR. Particulars: mice treated with 30 mg/kg (FIG. 8B). Type of assay: in vivo. As for the experimental part: Mice xenograft tissue samples were fixed in 10% formalin and embedded in paraffin. After routine rehydration, antigen retrieval and blocking, the sections were incubated in the primary antibody at 4° C. overnight. The primary antibody was recognized by the biotinylated secondary antibody and visualized by vectastain avidin-biotin complex peroxidase system (ABC kit) as well as peroxidase substrate 3,3′-diaminobenzidine kit (DAB kit).
Immunohistochemical staining was conducted using a cleaved caspase-3-specific antibody. […] Similar staining was carried our using an AR-specific antibody.

Experimental findings from patent US20110178171A1, “COMPOUNDS FOR CANCER THERAPY” (China Medical University, priority 2010, published 2011) are described below.

Regarding `COc1cc(/C=C2\C(=O)OCC2Cc2ccc3c(c2)OCO3)cc(OC)c1OC` (racemic) [Z-K8, Racemic (Z)-β-(3′,4′-Methylenedioxybenzyl)-α-(3′,4′,5′-trimethoxybenzylidene)-γ-butyrolactone], the “Caspase-3 Relative activity” value in assay [1] (0.25 μM) came out at 1.347; in assay [1] (0.5 μM), 1.274; in assay [1] (1 μM) it was 1.784; in assay [1] (2 μM), 2.399; in assay [1] (4 μM), 6.604. Moreover, the “expression of AR in tumors (IHC) versus control” value in assay [2] was “weaker”.
